Legend:
[1] = Evaluation of central nervous system toxicity (acute tolerability score); type: in vivo, mouse; settings: intraventricular
Procedure: On the ASO described in Table 2, the preparation of the nucleic acid, an in vivo experiment, and the evaluation of the target gene suppression effect were performed by the same methods as in Example 1. In this Example, however, the dose of the nucleic acid agent per mouse was 9.4 nmol (50 μg).
By the below-described methods, evaluation of central nervous system toxicity and evaluation of motor function were performed on mice after intraventricular administration.
In the evaluation of central nervous system toxicity, the behavior was evaluated, using the scoring system shown in FIG. 6, at 30 minutes, 1 hour, and 2 hours after the intraventricular administration. According to the scoring system shown in FIG. 6, the behaviors classified into five categories were evaluated (Categories 1 to 5 in FIG. 6). Each category comprises two behavior evaluation items. Each behavior evaluation item is rated in five stages from 0 to 4 points (Scores 0 to 4 in FIG. 6). A normal behavior is given 0 point, and higher toxicity is given a higher score. In each category, the higher score in the two behavior evaluation items is adopted as the score for the category. The total value of the scores for the five categories is defined as an acute tolerability score (0 to 20 points).

[2] = VHH antibody concentration in brain tissue after intraventricular administration (Alexa 647 fluorescence); type: in vivo; settings: coadministered with VHH antibody (29 μmol/mouse), TGN-073 250 μg/mouse, left hippocampus, left occipital cortex, left basal ganglia, 3 hours
Procedure: In this Example, a fluorescence-labeled camelized single domain antibody (VHH antibody; Alpaca anti-Rabbit IgG Nano (VHH) Recombinant Secondary Antibody, Alexa Fluor (trademark)647, #SA5-10327, Invitrogen) alone or in combination with TGN-073 (250 μg/mouse) was intraventricularly administered at a dose of […] to an 8-week-old ICR mouse (female). Hereinafter, the mice to which the VHH antibody alone was intraventricularly administered are referred to as the “VHH antibody single administration group”, and the mice to which the VHH antibody and TGN-073 were intraventricularly administered together are referred to as the “VHH antibody/TGN-073 coadministration group”. Brain tissue samples of the left hippocampus, left occipital cortex, and left basal ganglia were collected from the mice at 3 hours after the intraventricular administration. Using a fluorescence plate reader (M1000Pro, Tecan Group Ltd.), the Alexa 647 fluorescence intensity per brain weight was measured to thereby evaluate the concentration of the VHH antibody in each brain tissue.

SMILES: O=S(=O)(Nc1ncccc1OCc1ccccc1)c1ccccc1 [TGN-073, N-(3-benzyloxypyridin-2-yl)-benzene-sulfonamide]
- Central nervous system toxicity ([1]; TGN-073 single administration, 30 minutes, 1 hour, and 2 hours): no toxicity
- Acute tolerability score ([1]; TGN-073 single administration, 30 minutes, 1 hour, and 2 hours, scale 0 to 20 points): 0
- Acute tolerability score vs ASO single administration ([1]; coadministered with Mapt-targeting ASO (50 μg), 30 minutes, 1 hour, 2 hours): substantially the same acute tolerability score as the ASO single administration group
- Augmentation of neurotoxicity by TGN-073 coadministration ([1]; coadministered with Mapt-targeting ASO): no recognizable augmentation of neurotoxicity at all
- VHH antibody concentration in the central nervous system vs VHH antibody single administration [2]: dramatic increase

From patent publication US20260347843A1, “NERVOUS SYSTEM DELIVERY ENHANCER” (priority 2022, published 2026)
